Data as given in ChEMBL document CHEMBL5257024, “Synthesis of α,β-Unsaturated Carbonyl-Based Compounds, Oxime and Oxime Ether Analogs as Potential Anticancer Agents for Overcoming Cancer Multidrug Resistance by Modulation of Efflux Pumps in Tumor Cells” (J Med Chem, 2016).

Columns and labels:
[1] = Cytotoxicity against human MCF-10A cells assessed as cell viability incubated for 96 hrs by MTT assay; format: toxicity, cell-based; parameters: concentration or dose not given beside the values; conditions: read-out: Activity
MIA PaCa-2 = test: Antiproliferative activity against human MIA PaCa-2 cells assessed as inhibition of cell growth incubated for 48 hrs by propidium iodide staining based fluorometer assay; format: functional; conditions: MIA PaCa-2, 48 h
MCF7 = test: Antiproliferative activity against human MCF7 cells assessed as inhibition of cell growth incubated for 48 hrs by propidium iodide staining based fluorometer assay; format: functional; conditions: MCF7, 48 h
A549 = test: Antiproliferative activity against human A549 cells assessed as inhibition of cell growth incubated for 48 hrs by propidium iodide staining based fluorometer assay; format: functional; conditions: A549, 48 h
PANC-1 = test: cells; conditions: Homo sapiens, PANC-1, 48 h
Description: Antiproliferative activity against human PANC-1 cells assessed as inhibition of cell growth incubated for 48 hrs by propidium iodide staining based fluorometer assay

HT-29 = test: cells; conditions: Homo sapiens, HT-29, 48 h
Description: Antiproliferative activity against human HT-29 cells assessed as inhibition of cell growth incubated for 48 hrs by propidium iodide staining based fluorometer assay

NCI-H460 = test: cells; conditions: Homo sapiens, NCI-H460, 48 h
Description: Antiproliferative activity against human NCI-H460 cells assessed as inhibition of cell growth incubated for 48 hrs by propidium iodide staining based fluorometer assay

PC-3 = test: cells; conditions: Homo sapiens, PC-3, 48 h
Description: Antiproliferative activity against human PC-3 cells assessed as inhibition of cell growth incubated for 48 hrs by propidium iodide staining based fluorometer assay

| Compound | IC50 (MIA PaCa-2) [µM] | IC50 (MCF7) [µM] | IC50 (A549) [µM] | IC50 (PANC-1) [µM] | IC50 (HT-29) [µM] | IC50 (NCI-H460) [µM] | IC50 (PC-3) [µM] | viability at 96 h [1] [%] |
| --- | --- | --- | --- | --- | --- | --- | --- | --- |
| COc1cc(/C=C2\CC(C)C/C(=C\c3cc(OC)c(OC)c(OC)c3Br)C2=O)c(Br)c(OC)c1OC (stereo not given) | 1.4 | 1.3 | 1.8 | 1.6 | 1.8 | 1.2 | 1.1 | 91 |
| COc1cc(/C=C2\CCC/C(=C\c3cc(OC)c(OC)c(OC)c3Br)C2=O)c(Br)c(OC)c1OC | 2.6 | 3.1 | 2.6 | 2.4 | 2 | 2.6 | 2.9 | 89 |
| COc1ccc(/C=C2\CC(C)C/C(=C\c3ccc(OC)c(OC)c3Cl)C2=O)c(Cl)c1OC (stereo not given) | 3 | 3.2 | 4.4 | 3.2 | 2.9 | 2.9 | 3.7 | 94 |
| COc1cc(/C=C2\CCc3ccc(F)cc3C2=O)c(Br)c(OC)c1OC | 8.9 | 10.1 | 8.2 | 8.5 | 9.6 | 8.9 | 10.3 | 93 |
| COc1ccc2c(c1)CC/C(=C\c1cc(OC)c(OC)c(OC)c1Br)C2=O | 1.6 | 1.9 | 1.9 | 1.4 | 1.5 | 1.9 | 1.5 | 90 |
| COc1cccc(/C=C2\CCc3ccc(F)cc3C2=O)c1Cl | 15.2 | 12.9 | 11.1 | 12.4 | 12.9 | 15.2 | 12.6 | 90 |
| COc1cc(/C=C2\CCC/C(=C\c3cc(OC)c(OC)c(OC)c3Br)C2=NO)c(Br)c(OC)c1OC | 2.6 | 2.9 | 2.6 | 2.2 | 2.1 | 2.5 | 2.5 | 95 |
| COc1cc(/C=C2\CN(C)C/C(=C\c3cc(OC)c(OC)c(OC)c3Br)C2=O)c(Br)c(OC)c1OC | 1.9 | 1.9 | 1.3 | 1.8 | 1.1 | 1.8 | 1.6 | 92 |
| COc1cccc(/C=C2\CCc3ccccc3C2=O)c1Cl | 27.9 | 26.7 | 25.1 | 27.5 | 28.2 | 25.1 | 28.5 | 92 |
| COc1cc(/C=C2\CCc3ccccc3C2=O)c(Br)c(OC)c1OC | 23.7 | 20.4 | 22.6 | 21.3 | 21.2 | 22.2 | 22 | 94 |
| COc1cccc(/C=C2\CN(Cc3ccccc3)C/C(=C\c3cccc(OC)c3Cl)C2=O)c1Cl | 17 | 17.6 | 15.4 | 17.5 | 15.9 | 14.1 | 18.7 | 89 |
| COc1ccc(/C=C2\CCc3c(O)cccc3C2=O)c(Cl)c1OC | 3.2 | 3.1 | 3.3 | 3.6 | 3 | 3.8 | 3.5 | 91 |
| COc1cccc(/C=C2\CCc3ccc(Cl)cc3C2=O)c1Cl | 12.8 | 14.1 | 13.3 | 12.4 | 12.6 | 13.3 | 13.7 | 94 |
| COc1ccc(/C=C2\CN(C)C/C(=C\c3ccc(OC)c(OC)c3Cl)C2=O)c(Cl)c1OC | 3.2 | 3.3 | 3.9 | 3.4 | 3.8 | 3.5 | 3.3 | 90 |
| COc1cc2c(cc1OC)C(=O)/C(=C/c1ccc(OC)c(OC)c1Cl)CC2 | 5 | 5.4 | 5.4 | 5.4 | 5.2 | 5.8 | 5.2 | 97 |
| COc1cccc(/C=C2\CCc3ccc(Br)cc3C2=O)c1Cl | 12.8 | 14.1 | 13.3 | 13.4 | 14 | 12.9 | 13.7 | 94 |

The next lines start with results.

| IC50 (MIA PaCa-2) [µM] | IC50 (MCF7) [µM] | IC50 (A549) [µM] | IC50 (PANC-1) [µM] | IC50 (HT-29) [µM] | IC50 (NCI-H460) [µM] | IC50 (PC-3) [µM] | Compound | viability at 96 h [1] [%] |
| --- | --- | --- | --- | --- | --- | --- | --- | --- |
| 4.6 | 5.7 | 4.5 | 4.2 | 3.9 | 4.7 | 3.9 | COc1cccc2c1CC/C(=C\c1cc(OC)c(OC)c(OC)c1Br)C2=O | 94 |
| 9.5 | 9.1 | 10.7 | 10.5 | 10.9 | 10.6 | 10.8 | COc1ccc(/C=C2\CCc3ccc(Cl)cc3C2=O)c(Cl)c1OC | 94 |
| 15.5 | 15.4 | 16.2 | 15.6 | 10.3 | 13.9 | 15.7 | COc1ccc(/C=C2\CN(Cc3ccccc3)C/C(=C\c3ccc(OC)c(OC)c3Cl)C2=O)c(Cl)c1OC | 89 |
| 3.4 | 3.3 | 3.6 | 3.5 | 3.5 | 3.1 | 3.1 | COc1cccc(/C=C2\CCc3ccc([N+](=O)[O-])cc3C2=O)c1Cl | 95 |
| 4.3 | 4 | 4.4 | 4.2 | 4.5 | 4.9 | 4.8 | COc1cc(/C=C2\CNC/C(=C\c3cc(OC)c(OC)c(OC)c3Br)C2=O)c(Br)c(OC)c1OC | 96 |
| 6.7 | 7.2 | 8.8 | 7.4 | 7.1 | 7.9 | 7.2 | COc1cccc(/C=C2\CCc3c(OC)ccc(OC)c3C2=O)c1Cl | 98 |
| 23.2 | 20.5 | 23.3 | 24.5 | 26.5 | 22.9 | 23.4 | COc1ccc(/C=C2\CCc3ccccc3C2=O)c(Cl)c1OC | 96 |
| 6.2 | 6.4 | 7.5 | 6.5 | 6.6 | 7.2 | 7 | COc1ccc(/C=C2\CNC/C(=C\c3ccc(OC)c(OC)c3Cl)C2=O)c(Cl)c1OC | 92 |
| 9 | 10.9 | 9.1 | 9.9 | 9.2 | 10.9 | 9.3 | COc1cc(/C=C2\CCc3ccc(Br)cc3C2=O)c(Br)c(OC)c1OC | 92 |
| 2.3 | 2.1 | 2.6 | 2.4 | 2.9 | 2.2 | 2.4 | COc1cc(/C=C2\CC(C)c3ccccc3C2=O)c(Br)c(OC)c1OC (stereo not given) | 92 |
| 9.6 | 9.8 | 10.9 | 9.8 | 9.4 | 10.6 | 9.3 | COc1ccc(/C=C2\CCc3ccc(F)cc3C2=O)c(Cl)c1OC | 95 |
| 2.4 | 2.8 | 2.2 | 2.6 | 2.8 | 2.2 | 2 | COc1cc2c(cc1OC)C(=O)/C(=C/c1cc(OC)c(OC)c(OC)c1Br)CC2 | 98 |
| 4.6 | 4.3 | 4.1 | 4.9 | 4.2 | 5 | 4.6 | COc1cc(/C=C2\COC/C(=C\c3cc(OC)c(OC)c(OC)c3Br)C2=O)c(Br)c(OC)c1OC | 92 |
| 10.6 | 11.1 | 10.3 | 10.8 | 10.5 | 11.1 | 10.4 | COc1ccc(/C=C2\CCc3ccc(Br)cc3C2=O)c(Cl)c1OC | 92 |
| 3.9 | 4.1 | 4.3 | 4.3 | 4 | 3.8 | 4.5 | COc1ccc(OC)c2c1CC/C(=C\c1ccc(OC)c(OC)c1Cl)C2=O | 90 |
| 4.2 | 4.7 | 3.9 | 4.2 | 3.7 | 4.1 | 5.2 | COc1ccc(/C=C2\CCC/C(=C\c3ccc(OC)c(OC)c3Cl)C2=O)c(Cl)c1OC | 90 |
| 6.7 | 6.4 | 6.7 | 6.9 | 6.7 | 6.4 | 7.2 | COc1cccc2c1CC/C(=C\c1ccc(OC)c(OC)c1Cl)C2=O | 95 |
| 9.8 | 8.8 | 8.7 | 8.3 | 8.4 | 9.6 | 9.9 | COc1cccc(/C=C2\CC(C)c3ccccc3C2=O)c1Cl (stereo not given) | 98 |
| 9.9 | 10.5 | 9.2 | 9.5 | 10.4 | 9.2 | 9.2 | COc1cc2c(cc1OC)C(=O)/C(=C/c1cccc(OC)c1Cl)CC2 | 91 |
